According to article PMC12516379, “Rotamer-Controlled Self-Immolative Linkers Enable Tunable Release of Neurosteroid Oxime Prodrugs” (ACS Medicinal Chemistry Letters, 2025):

What was measured:
[1] = PBS stability assay at 37 °C via LC-MS/MS; format: physicochemical; settings: for half-life at 3 µM: pH 7.03, PBS
Procedure: (§20) To address this, prodrug stability was further evaluated in human plasma at 37 °C using liquid chromatography–tandem mass spectrometry (LC-MS/MS). For direct comparison, a parallel screen was conducted in PBS under identical conditions (Table ). To prevent premature degradation prior to LC-MS/MS analysis, acetonitrile containing formic acid was used as a quenching solution to acidify and stabilize the prodrugs in vials. […] This limitation in detection, along with the need for a more uniform and broadly applicable assessment across all compounds, prompted us to monitor the formation of the parent oxime as an alternative readout.
(§21) Stability experiments in human plasma and PBS were performed via liquid chromatography-tandem mass spectrometry (LC-MS/MS) to determine and compare rate of cleavage of progesterone prodrugs as well as selected allopregnanolone prodrugs (3 µM) when incubated at 37 °C. All experiments were performed in duplicate and results are presented as the average of two experimental replicates.

[2] = Aqueous solubility by visual inspection in acetate buffer (pH 5); settings: sodium acetate buffer
Procedure: For the solubility assessment, acetate buffer (pH 5) was selected as the media of choice to ensure prodrug stability during analysis.
High aqueous solubility was determined by visual inspection of 5 mg solid material in 0.5 mL
sodium acetate buffer solution. This media was selected to ensure stability of prodrugs during
dissolution in 50 mg/mL aqueous media.

[3] = Stability in PBS at room temperature via HPLC (UV); format: physicochemical; settings: phosphate-buffered saline (DPBS)
Procedure: (§1) Stability studies were conducted in PBS and acetate buffer utilizing high performance liquid chromatography for potential drug storage considerations. […]
(§2) All experiments were performed in duplicate and results are presented as the average of two experimental replicates.
(§3) 1.1 Aqueous Stability in PBS and Acetate Buffer via HPLC
(§4) Material and Instrumentation
(§5) HPLC grade acetonitrile (MeCN) […] HPLC grade water (H 2O), and formic acid (FA) were purchased from Fisher Scientific.
(§6) Puradisc 4 mm PTFE (0.45 μm) syringe filters from Cytiva. Gibco ® Dulbecco’s phosphate-buffered saline (DPBS 1X, no calcium, no magnesium, pH = 7.03) and acetate buffer (pH = 5.0, 10 mM) were purchased directly from Thermo Fisher Scientific and Cytiva, respectively.
(§7) Aqueous stability experiments were performed on an Agilent 1100 HPLC equipped with an Agilent G1315B diode array detector, an Agilent G1316A heated column compartment, and a Zorbax Eclipse XDB-C18 (4.6 x 150 mm, 5 μm) column.
(§8) Procedure for Aqueous Stability Experiments
(§9) Each sample was first weighed out in two separate 2.0 mL vials using an analytical balance.
(§10) Unless otherwise specified, the test compounds were then dissolved in the aqueous media (PBS or acetate buffer) at a standard concentration of 1 mg/mL. All mixtures were subsequently sonicated for approximately 30 sec. […]
(§11) min), precipitates observed in sample solutions were filtered with a PTFE syringe filter prior to analysis. Immediately after sample preparation, injection by the HPLC autosampler was performed, which was recorded as the initial time point (t = 0 min). Solutions were then kept in the autosampler at RT and reinjected at designated intervals without additional filtration or sample modification. Remaining prodrug was defined by the area under the curve (AUC) at 254 nm. Aqueous stability was ascertained by calculating the percentage of the parent compound remaining after each time point. Linear regression of the time (x-axis) vs. ln(%remaining) (y-axis) plot afforded the rate constant k (slope = -k). Pseudo first-order half-lives were then calculated by the following equation: t1/2 = 0.693/k.

[4] = Plasma stability assay via LC-MS/MS, mouse plasma; format: in vitro ADME; settings: read-out: t1/2 in mouse plasma (Table S20) (converted)
Procedure: (§12) Building on our observation that rotamer control in the steric series can be modulated by enzymatic stabilization or activation, we next evaluated whether this effect was species dependent. To investigate this, we performed comparative stability studies by incubating select prodrugs (20a, 20b, 20l and 20t; Figure ) in mouse and rat plasma – two of the most commonly used preclinical species in drug development. This approach allowed us to assess the potential influence of species-specific enzymes on rotamer equilibria and, by extension, prodrug activation rates. The self-immolation profiles for the sterically tuned linker series (20a–b) reveal discernible, species-dependent differences prodrug stability. […] While the precise biochemical drivers remain unclear, this observation warrants further investigation beyond the scope of this work.
(§13) 1.2 Stability in Plasma and PBS via LCMS
(§14) Procaine (positive control) was purchased from Sigma-Aldrich. HPLC grade MeCN, MeOH, H2O, and FA were purchased from Fischer Scientific. Human plasma (cat. No. […]- […]
(§15) 0102242) were obtained from BIOIVT. DPBS 1X (no calcium, no magnesium, pH = 7.03) was purchased from Thermo Fischer Scientific. Stock solutions were prepared in 100% DMSO, and suitable dilutions of target analytes were prepared in 0.1% FA /MeCN for method development.
(§16) For PBS assay Gibco® Dulbecco’s phosphate-buffered saline (DPBS 1X, no calcium, no magnesium, pH = 7.03) was utilized. All experiments were performed in duplicate and results are presented as the average of two experimental replicates.
(§17) Procedure for Plasma Stability Assay
(§18) Test compounds and positive control (i.e. procaine) were dissolved in DMSO to make a 10 mM stock solution and subsequently diluted to 500 μM in 50% MeCN and PBS. This intermediate stock solution was prepared and added immediately prior to the start of each test compound experiment. Plasma was thawed at ambient temperature and aliquoted (663.0 μL) into 1.5 mL Eppendorf tubes. Plasma was incubated at 37 °C for 10 minutes in an incubator shaker at 150 rpm, and the reactions were initiated by addition of the test compound or positive control (4.0 µL, 3 μM). The spiked plasma samples were incubated at 37 °C. For designated time points, 75 µL aliquots were removed from the incubation mixture and immediately quenched in 150 µL of MeCN/0.1%FA with internal standard (ISTD, 2 µM d 5-7-ethoxy coumarin). […] The supernatant was transferred to an LC-MS vial and analyzed by LC/MS-MS. […]
(§19) LC–MS/MS analysis was performed using an Agilent 1260 Infinity II HPLC, coupled with an Agilent G6460 triple quadrupole mass spectrometer (Agilent Technologies, USA). All the data were acquired employing Agilent 6460 Quantitative Analysis data processing software. […]

[5] = Plasma stability assay via LC-MS/MS, rat plasma; format: in vitro ADME; settings: read-out: t1/2 in rat plasma (Table S19) (converted)
Procedure: as §12, §13, §14, §15, §16, §17, §18, §19

[6] = Stability in acetate buffer pH 5.0 at room temperature via HPLC (UV); format: physicochemical
Procedure: as §1, §2, §3, §4, §5, §6, §7, §8, §9, §10, §11

[7] = Plasma stability assay at 37 °C via LC-MS/MS, human plasma; format: in vitro ADME; settings: for half-life at 3 µM: human, plasma;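 as to all read-outs here: prodrugs at 3 µM incubated in human plasma at 37 °C, intact prodrug quantified by LC-MS/MS over time, values are means of duplicate runs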
Procedure: as §20, §21

[8] = Formation of progesterone oxime 3 from prodrugs in human plasma at 37 °C over 2 h; format: in vitro ADME; settings: 2 h period
Procedure: Given the greater biological relevance of plasma, we focused on quantifying the formation of progesterone and allopregnanolone oxime in human plasma at 37 °C over a 2 h period. Results for selected progesterone prodrugs are presented in Figure A–C, illustrating the broad range of plasma cleavage rates as a function of promoiety design (see Figure S13 in Supporting Information for complete data set). Complete stability data for synthesized allopregnanolone prodrugs (Figures S18–S20) are provided in the Supporting Information. Given that their trends closely paralleled the progesterone series, they were not discussed in detail in the main text. […] This unexpected result prompted further investigation using computational modeling, described in the following section. […] Higher pK a values were associated with faster and more complete oxime formation, likely due to enhanced H-bonding which could stabilize the reactive syn-conformer. […] For the heterocyclic pyrrolidine and angle-strained series (Figure C), the release rates closely matched the experimentally determined prodrug half-lives (Table ), which were shorter in human plasma than in PBS. […] Although both 20s and 20t are capable of adopting the reactive syn-rotamer, their self-immolation reactivity diverged due to differences in linker geometry. The cyclopropane in 20s induces angle strain that hinders nucleophilic attack, rendering the compound stable under both PBS and plasma conditions. […] This intriguing result warrants further investigation, with follow-up studies currently in progress. Finally, the nucleophilic capacity of the amine tethers in prodrugs 20w–20z were evaluated based on their ability to cyclize in plasma, as detailed in the Supporting Information Figure S13.
as §13, §14, §15, §16, §17
Test compounds and positive control (i.e. procaine) were dissolved in DMSO to make a 10 mM stock solution and subsequently diluted to 500 μM in 50% MeCN and PBS. […] The supernatant was transferred to an LC-MS vial and analyzed by LC/MS-MS. […]

[9] = phosphate-buffered saline (DPBS), 37 °C, 3 µM, LC-MS/MS, read-out: t1/2 in PBS at 37 °C (Tables S14-S17) (converted)
[10] = phosphate-buffered saline (DPBS), 37 °C, LC-MS/MS, read-out: Half-life (t½) PBS 37°C (converted)
[11] = phosphate-buffered saline (DPBS), 37 °C, read-out: PBS, 37 °C t½ (Table S23) (converted)
[12] = pH 5, aqueous buffer, thermodynamic from solid
[13] = pH 7.03, DPBS pH 7.03, RT, 1 mg/mL, HPLC 254 nm, read-out: t1/2 in PBS buffer at RT (Tables S1-S4) (converted)
[14] = pH 7.03, PBS, rt, HPLC (UV), read-out: Half-life (t½) PBS rt (converted)
[15] = pH 7.03, PBS, rt, read-out: t½: PBS, rt (Table S23) (converted)
[16] = pH 5, acetate buffer pH 5.0, RT, 1 mg/mL, HPLC 254 nm, read-out: t1/2 in acetate buffer at RT (Tables S5-S8) (converted)
[17] = pH 5, acetate buffer pH 5.0, rt, HPLC (UV), read-out: Half-life (t½) pH 5.0 rt (converted)
[18] = pH 5, acetate buffer pH 5.0, rt, read-out: t½: pH 5.0, rt (Table S23) (converted)
[19] = 3 µM, LC-MS/MS, read-out: t1/2 in human plasma at 37 °C (Tables S10-S13, S18) (converted)
[20] = LC-MS/MS, read-out: Half-life (t½) Plasma 37°C (converted)
[21] = read-out: Plasma, 37 °C t½ (Table S23) (converted)

Row | Compound | PBS, 37 °C %rem. at 2h (Table S23) ([1]; PBS, 37 °C, 2 h) [%] | half-life at 3 µM [1, 9] [h] | half-life at 3 µM [1, 10] [h] | half-life at 3 µM [1, 11] [h] | solubility [2, 12] [µg/mL] | half-life at 1 mg/mL [3, 13] [h] | half-life at 1 mg/mL [3, 14] [h] | half-life at 1 mg/mL [3, 15] [h] | half-life at 3 µM [4] [h] | half-life at 3 µM [5] [h] | half-life at 1 mg/mL [6, 16] [h] | half-life at 1 mg/mL [6, 17] [h] | half-life at 1 mg/mL [6, 18] [h] | Plasma, 37 °C %rem. at 2h (Table S23) [7] | half-life at 3 µM [7, 19] [h] | half-life at 3 µM [7, 20] [h] | half-life at 3 µM [7, 21] [h] | Formation/release of oxime 3 in human plasma, in words [8] | further results
1 | CNCCN(C(=O)O/N=C(\C)[C@H]1CC[C@H]2[C@@H]3CCC4=CC(=O)CC[C@]4(C)[C@H]3CC[C@]12C)C1CC1.O=C(O)C(F)(F)F [20b] | 68 | 4.5 | 4.5 | 4.5 | > 10000 | 28.16 ± 0.04 | 28.2 | 28.2 | 5.4 | 2.3 | > 168 | > 168 | > 168 | 31% | 1.27 | 1.27 | 1.27 |  | half-life at 3 µM ([1]; phosphate-buffered saline (DPBS), 37 °C, read-out: t1/2 (h) PBS, 37 °C (Tables S25, S26) (converted)): 4.5 h; remaining at 2 h, 3 µM ([1]; phosphate-buffered saline (DPBS), pH 7.03, PBS, 37 °C, 2 h, read-out: % Remaining @ 2h, PBS, 37 °C (Tables S25, S26)): 68%
2 | CNCCN(CCN(C)C)C(=O)O/N=C(\C)[C@H]1CC[C@H]2[C@@H]3CCC4=CC(=O)CC[C@]4(C)[C@H]3CC[C@]12C [20g] |  |  |  |  | < 10000 | 2.17 ± 0.02 | 2.17 | 2.17 |  |  | 75.8 | 75.8 | 75.8 |  |  |  |  | rapid, first-order release | 
3 | C/C(=N\OC(=O)N(C)C[C@@H]1CCCN1)[C@H]1CC[C@H]2[C@@H]3CCC4=CC(=O)CC[C@]4(C)[C@H]3CC[C@]12C.O=C(O)C(F)(F)F [20l] | 8 | 0.74 | 0.74 | 0.74 | > 10000 | 1.9 ± 0.12 | 1.9 | 1.9 | 0.4 | 0.4 | 175 | 175 | 175 | 1% | 0.31 | 0.31 | 0.31 |  | 
4 | C/C(=N\OC(=O)N(C)C[C@@H]1CC(F)(F)CN1)[C@H]1CC[C@H]2[C@@H]3CCC4=CC(=O)CC[C@]4(C)[C@H]3CC[C@]12C [20r] | 72 | 4.93 | 4.93 | 4.93 |  |  |  |  |  |  |  |  |  | stable |  |  | > 24 | low levels of oxime | Prodrug stability / self-immolation in buffer, in words ([1]; PBS): highly stable, noncleaving prodrug; solubility ([2]; pH 5): < 10000 µg/mL; t1/2 in human plasma at 37 °C (Tables S10-S13, S18) ([7]; 3 µM, LC-MS/MS): stable; Half-life (t½) Plasma 37°C ([7]; LC-MS/MS): stable
5 | CNC1(CN(C)C(=O)O/N=C(\C)[C@H]2CC[C@H]3[C@@H]4CCC5=CC(=O)CC[C@]5(C)[C@H]4CC[C@]23C)CCC1 [20t] | 14 | 0.94 | 0.94 | 0.94 | > 10000 | 10.5 | 10.5 | 10.5 | 0.34 | 0.46 | > 168 | > 168 | > 168 | 4% | 0.44 | 0.43 | 0.44 |  | 
